Measurements taken from the supplement of paper PMC11208160.

Assay: recombinant UMI read abundance after kanamycin selection (control-corrected) (log10(CPM+1)); higher = more efficient recombination; extreme values may be limits of the assay; sequences stand for … in AGTGCAGAGAAAATCGGCCAGTTTTCTCTGCCTGCAGTCCGCATGCCGTGGGACCCCTTGGGTTCTAACCTGTTGCCTAGATTTATGCAGCGGACTGCCTTTCTCCCAAAGTGATAAACCGG…AGGTTGGTTTCACT; site = the 11-nt donor
Procedure, shortened: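 Each donor and donor-binding-loop pair was tracked by a 12-nt UMI on a plasmid carrying a promoterless kanamycin gene. With a second plasmid supplying a fixed target and T7-inducible IS621 bridge recombinase, the pool was plated in Escherichia coli on IPTG (0.07 mM) plus kanamycin or unselected. Sequencing of recombinant UMIs across the donor–target junction gave counts expressed as log10(CPM+1) after replicate averaging and control-derived scaling.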
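Also: IS621 bridge recombinase in Escherichia coli cells against a fixed T5 target plasmid.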

| Sequence | recombinant UMI read abundance (log10) |
| --- | --- |
| CTAGCGCCATGGACCGGTTTTCCCGGTAATCCGTATTTGTG (site CCAGCGCCTCA) | 0.0159 |
| TTATGTGCATGGACCGGTTTTCCCGGTAATCCGTATTTGCT (site TTATGTGCTAG) | 2.36 |
| TGTCCACCATGGACCGGTTTTCCCGGTAATCCGTATTTGAC (site TGTGCACCTGT) | 0 |
| CCAGGTGCATGGACCGGTTTTCCCGGTAATCCGTATTTGAT (site CCAGATGCTAT) | 1.74 |
| ATAACGCCATGGACCGGTTTTCCCGGTAATCCGTATTTGAC (site ATAAGGCCTGT) | 0 |
| CACTTGGCATGGACCGGTTTTCCCGGTAATCCGTATTTGGG (site CACTTGGCTGC) | 0 |
| TCCTTATCATGGACCGGTTTTCCCGGTAATCCGTATTTGTT (site TCCTTATCTAA) | 0 |
| GTTAGAACATGGACCGGTTTTCCCGGTAATCCGTATTTGGG (site GTTAGAACTAC) | 0 |
| ATAAAATCATGGACCGGTTTTCCCGGTAATCCGTATTTGCC (site ATAAAATCTGG) | 1.66 |
| GCTACTCCATGGACCGGTTTTCCCGGTAATCCGTATTTGCC (site GCTACTGCTGG) | 0 |
| CGGAATCCATGGACCGGTTTTCCCGGTAATCCGTATTTGGG (site CGGAATCCTCC) | 0.0126 |
| CTGCGACCATGGACCGGTTTTCCCGGTAATCCGTATTTGCT (site CTGCAACCTAG) | 0 |
| AATCGTCCATGGACCGGTTTTCCCGGTAATCCGTATTTGAT (site AATCGTCCTAT) | 0.306 |
| ACATTACCATGGACCGGTTTTCCCGGTAATCCGTATTTGGA (site ACATTACCTTC) | 0 |
| GGGACGTCATGGACCGGTTTTCCCGGTAATCCGTATTTGTT (site GGTACGTCTAA) | 0.0147 |
| CTAGTCTCATGGACCGGTTTTCCCGGTAATCCGTATTTGAG (site CTAGTCTCTCT) | 0.61 |
| CTGGAGGCATGGACCGGTTTTCCCGGTAATCCGTATTTGTG (site TTGGAGGCTCA) | 0.0143 |
| TGTTCCCCATGGACCGGTTTTCCCGGTAATCCGTATTTGAA (site TGTTCCCCTTT) | 0.0201 |
| CCTAAACCATGGACCGGTTTTCCCGGTAATCCGTATTTGAT (site CCTAAACCTAT) | 0 |
| AACAGAGCATGGACCGGTTTTCCCGGTAATCCGTATTTGAT (site AACAGAGCTAT) | 2.02 |
| AGGAAGACATGGACCGGTTTTCCCGGTAATCCGTATTTGCA (site TGGAAGACTTA) | 0.696 |
| CGCCCTCCATGGACCGGTTTTCCCGGTAATCCGTATTTGAT (site CGCCCTCCTAT) | 0.51 |
| AGGAAGGCATGGACCGGTTTTCCCGGTAATCCGTATTTGCA (site AGGAAGCCTTG) | 0 |
| GTAGTACCATGGACCGGTTTTCCCGGTAATCCGTATTTGAC (site GTAGTACCTGT) | 0 |
| GTTTAACCATGGACCGGTTTTCCCGGTAATCCGTATTTGGT (site GTTTAACCTAC) | 0.00474 |

| Sequence | recombinant UMI read abundance (log10) |
| --- | --- |
| AGACGGGCATGGACCGGTTTTCCCGGTAATCCGTATTTGTC (site AGACGGGCTGA) | 2.3 |
| AACTATGCATGGACCGGTTTTCCCGGTAATCCGTATTTGGA (site AATTATGCTTC) | 0.908 |
| CACGGCCCATGGACCGGTTTTCCCGGTAATCCGTATTTGAT (site CACGGCCCTAA) | 0.0181 |
| GTAAGAACATGGACCGGTTTTCCCGGTAATCCGTATTTGGC (site GTTAGAACTGC) | 1.13 |
| AAGCGCGCATGGACCGGTTTTCCCGGTAATCCGTATTTGGG (site AAGCCCGCTCC) | 0.0103 |
| GACTGGACATGGACCGGTTTTCCCGGTAATCCGTATTTGAC (site GAATGGACTGT) | 0 |
| GGTCCAACATGGACCGGTTTTCCCGGTAATCCGTATTTGGA (site GGTCCAACTTA) | 0.00455 |
| ACCAGAACATGGACCGGTTTTCCCGGTAATCCGTATTTGAG (site ACAAGAACTCT) | 0 |
| CGGCTTGCATGGACCGGTTTTCCCGGTAATCCGTATTTGCC (site CGGCTTGCTGG) | 0.904 |
| CTGGATACATGGACCGGTTTTCCCGGTAATCCGTATTTGCA (site CTGGACACTTG) | 1.92 |
| CAGCACGCATGGACCGGTTTTCCCGGTAATCCGTATTTGGG (site CAGCACGCTCC) | 0.512 |
| AGACACTCATGGACCGGTTTTCCCGGTAATCCGTATTTGGT (site AGACACTCTAC) | 2.78 |
| AAATGTTCATGGACCGGTTTTCCCGGTAATCCGTATTTGCC (site AAATGTTCTGG) | 2.2 |
| CCCGCCACATGGACCGGTTTTCCCGGTAATCCGTATTTGCC (site CCCGCCACTGG) | 2.07 |
| AGTAACGCATGGACCGGTTTTCCCGGTAATCCGTATTTGCA (site AGTAACGCTTG) | 2.29 |
| TTATTTGCATGGACCGGTTTTCCCGGTAATCCGTATTTGTA (site TTATTTGCTTA) | 0.103 |
| CGAGGACCATGGACCGGTTTTCCCGGTAATCCGTATTTGGT (site CGAGGACCTTC) | 0.0098 |
| CAAGATACATGGACCGGTTTTCCCGGTAATCCGTATTTGGT (site CAAGATACTAC) | 1.97 |
| CGCAGTACATGGACCGGTTTTCCCGGTAATCCGTATTTGCT (site CGCTGTACTAG) | 0 |
| GTGGAGGCATGGACCGGTTTTCCCGGTAATCCGTATTTGGG (site GTGGAGGCTCA) | 0.238 |
| GCGCCTCCATGGACCGGTTTTCCCGGTAATCCGTATTTGGG (site GCGCCTCCTCC) | 0.0195 |
| CAAAGAACATGGACCGGTTTTCCCGGTAATCCGTATTTGCG (site CAAAGAACTCG) | 2.53 |
| CTATGCTCATGGACCGGTTTTCCCGGTAATCCGTATTTGAA (site CCATGCTCTTT) | 0.497 |
| CTTCGCTCATGGACCGGTTTTCCCGGTAATCCGTATTTGTA (site CTTCGCTCTTA) | 1.8 |
| AGGAAGACATGGACCGGTTTTCCCGGTAATCCGTATTTGCA (site AGGAAGACTGT) | 0 |

| Sequence | recombinant UMI read abundance (log10) |
| --- | --- |
| TGCGAGGCATGGACCGGTTTTCCCGGTAATCCGTATTTGGA (site TGCGAGGCTTC) | 0.00911 |
| CGGACATCATGGACCGGTTTTCCCGGTAATCCGTATTTGCT (site CGGACATCTAT) | 1.21 |
| GTATAGTCATGGACCGGTTTTCCCGGTAATCCGTATTTGGT (site GTATAGTCTAC) | 2.67 |
| GTGTCCCCATGGACCGGTTTTCCCGGTAATCCGTATTTGGA (site GTGTCCCCTTC) | 0.0113 |
| TGTCCACCATGGACCGGTTTTCCCGGTAATCCGTATTTGAC (site TGTTCACCTGT) | 0 |
| GAAAGGCCATGGACCGGTTTTCCCGGTAATCCGTATTTGCA (site GAATGGCCTTG) | 0 |
| AGGAAGACATGGACCGGTTTTCCCGGTAATCCGTATTTGCA (site AGGAGCACTTG) | 0.0101 |
| CTATGCTCATGGACCGGTTTTCCCGGTAATCCGTATTTGAA (site CTATGCTCTTT) | 2.25 |
| TAGAATACATGGACCGGTTTTCCCGGTAATCCGTATTTGAA (site TAGAATACTTC) | 0.0116 |
| CTGTCTACATGGACCGGTTTTCCCGGTAATCCGTATTTGTT (site CTGTCTACTAA) | 0.252 |
| ATAAGACCATGGACCGGTTTTCCCGGTAATCCGTATTTGAC (site ATAAGACCTGT) | 0 |
| GCCGTATCATGGACCGGTTTTCCCGGTAATCCGTATTTGAA (site GCCGTATCTTT) | 2.31 |
| GGTAAACCATGGACCGGTTTTCCCGGTAATCCGTATTTGAA (site GGTAAACCTTT) | 0 |
| CGACCATCATGGACCGGTTTTCCCGGTAATCCGTATTTGCT (site CGAACATCTAG) | 1.13 |
| TTTGCGGCATGGACCGGTTTTCCCGGTAATCCGTATTTGCC (site TTTGCGGCTAG) | 0.0224 |
| GGTTATCCATGGACCGGTTTTCCCGGTAATCCGTATTTGCT (site GATTATCCTAG) | 0 |
| AGGTTCCCATGGACCGGTTTTCCCGGTAATCCGTATTTGTT (site AGGTTCCCTGA) | 0 |
| GGTGTCCCATGGACCGGTTTTCCCGGTAATCCGTATTTGAA (site GGTGTCCCTTT) | 0.0114 |
| GCGAAAACATGGACCGGTTTTCCCGGTAATCCGTATTTGCT (site GCGATAACTAG) | 0.603 |
| GGTACGTCATGGACCGGTTTTCCCGGTAATCCGTATTTGGT (site GGTACGTCTAA) | 0.00807 |
| AGGTTCGCATGGACCGGTTTTCCCGGTAATCCGTATTTGTG (site AGGTTCTCTCA) | 0 |
| AGAAAGCCATGGACCGGTTTTCCCGGTAATCCGTATTTGCT (site AGAAAGCCTAG) | 0 |
| GAAGAAGCATGGACCGGTTTTCCCGGTAATCCGTATTTGAG (site GAAGAAGCTCT) | 2.53 |
| GCCAAACCATGGACCGGTTTTCCCGGTAATCCGTATTTGGT (site GTCAAACCTAC) | 0 |
| TAAGAATCATGGACCGGTTTTCCCGGTAATCCGTATTTGCG (site TAGGAATCTCG) | 2.51 |
